Measurements: patent US5556744A, “Methods and compositions for diagnosing and treating certain HIV infected patients” (The Trustees of the University of Pennsylvania, priority 1994, dated 1996)

Columns and labels:
Parameters in all cases: species or system human
[1] = system: maternal sera (antibodies); experiment: ELISA peptide-binding of maternal sera (Example 6)
Summary of the method: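 HIV-1 envelope peptides averaging 16 amino acids, covering external and transmembrane glycoprotein, were probed by ELISA. Third-trimester maternal sera, classed as transmitter or non-transmitter by child diagnosis, were each run on at least 40 peptides. Values give percent of sera binding a peptide.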

[2] = system: maternal HIV+ sera (antibodies); experiment: RIA / ELISA binding of maternal HIV+ sera to gp120 and gp41 peptides (Example 3)
Summary of the method: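 Maternal sera, diluted 1:50 and 1:500, were bound overnight at 4°C to peptides immobilized at 10 μg/ml (pH 9.6 carbonate) and blocked with 1% BSA. Read-out was ¹²⁵I-labelled anti-human IgG counts or HRP-TMB OD450. Signal with peptide minus without was expressed relative to seronegative serum.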

[3] = system: sera samples (antibodies); experiment: ELISA peptide-binding of maternal sera, MN strain peptides (Example 7); details: for % Bound, Non-Transmitter / No. of Sera Samples Bound, Non-Transmitter / % Bound, Transmitter / No. of Sera Samples Bound, Transmitter: n = 5
Protocol: This example provides additional sera screens using peptides corresponding to sequences of the MN strain. The sera samples (5 transmitters and 5 non-transmitters) were obtained from the NIH and differ from those screened in the previous studies. Peptide binding was analyzed by ELISA as described in Example 3.

[4] = Serum No. 1, Non-Transmission Group
[5] = Serum No. 2, Non-Transmission Group
[6] = Serum No. 3, Non-Transmission Group
[7] = Serum No. 4, Transmission Group
[8] = Serum No. 5, Transmission Group
[9] = Serum No. 6, Non-Transmission Group
[10] = Serum No. 7, Non-Transmission Group
[11] = Serum No. 8, Non-Transmission Group
[12] = Serum No. 9, Non-Transmission Group
[13] = Serum No. 10, Transmission Group
[14] = Serum No. 11, Non-Transmission Group
[15] = Serum No. 12, Non-Transmission Group
[16] = Serum No. 13, Transmission Group
[17] = Serum No. 14, Transmission Group
[18] = Serum No. 15, Transmission Group
[19] = Serum No. 16, Non-Transmission Group
[20] = Serum No. 17, Non-Transmission Group
[21] = Serum No. 18, Non-Transmission Group
[22] = Serum No. 19, Transmission Group
[23] = Serum No. 20, Non-Transmission Group

Substance	Binding of maternal HIV+ serum to peptide (sera/NHS ratio) [2, 4]	Binding of maternal HIV+ serum to peptide (sera/NHS ratio) [2, 5]	Binding of maternal HIV+ serum to peptide (sera/NHS ratio) [2, 6]	Binding of maternal HIV+ serum to peptide (sera/NHS ratio) [2, 7]	Binding of maternal HIV+ serum to peptide (sera/NHS ratio) [2, 8]	Binding of maternal HIV+ serum to peptide (sera/NHS ratio) [2, 9]	Binding of maternal HIV+ serum to peptide (sera/NHS ratio) [2, 10]	Binding of maternal HIV+ serum to peptide (sera/NHS ratio) [2, 11]	Binding of maternal HIV+ serum to peptide (sera/NHS ratio) [2, 12]	Binding of maternal HIV+ serum to peptide (sera/NHS ratio) [2, 13]	Binding of maternal HIV+ serum to peptide (sera/NHS ratio) [2, 14]	Binding of maternal HIV+ serum to peptide (sera/NHS ratio) [2, 15]	Binding of maternal HIV+ serum to peptide (sera/NHS ratio) [2, 16]	Binding of maternal HIV+ serum to peptide (sera/NHS ratio) [2, 17]	Binding of maternal HIV+ serum to peptide (sera/NHS ratio) [2, 18]	Binding of maternal HIV+ serum to peptide (sera/NHS ratio) [2, 19]	% Bound, Non-Transmitter [3] [%]	No. of Sera Samples Bound, Non-Transmitter [3]	% Bound, Transmitter [3] [%]	No. of Sera Samples Bound, Transmitter [3]	also measured
ELDKWASLWNWFNITNWLWY [Peptide 53]	- (specific OD450 or cpm of sera sample binding to peptide divided by the specific OD450 or cpm of NHS sample binding to peptide, which value is less than 2)	- (specific OD450 or cpm of sera sample binding to peptide divided by the specific OD450 or cpm of NHS sample binding to peptide, which value is less than 2)	- (specific OD450 or cpm of sera sample binding to peptide divided by the specific OD450 or cpm of NHS sample binding to peptide, which value is less than 2)	- (specific OD450 or cpm of sera sample binding to peptide divided by the specific OD450 or cpm of NHS sample binding to peptide, which value is less than 2)	- (specific OD450 or cpm of sera sample binding to peptide divided by the specific OD450 or cpm of NHS sample binding to peptide, which value is less than 2)	- (specific OD450 or cpm of sera sample binding to peptide divided by the specific OD450 or cpm of NHS sample binding to peptide, which value is less than 2)	++ (which value is greater than 3)	- (specific OD450 or cpm of sera sample binding to peptide divided by the specific OD450 or cpm of NHS sample binding to peptide, which value is less than 2)	- (specific OD450 or cpm of sera sample binding to peptide divided by the specific OD450 or cpm of NHS sample binding to peptide, which value is less than 2)	- (specific OD450 or cpm of sera sample binding to peptide divided by the specific OD450 or cpm of NHS sample binding to peptide, which value is less than 2)	- (specific OD450 or cpm of sera sample binding to peptide divided by the specific OD450 or cpm of NHS sample binding to peptide, which value is less than 2)	- (specific OD450 or cpm of sera sample binding to peptide divided by the specific OD450 or cpm of NHS sample binding to peptide, which value is less than 2)	- (specific OD450 or cpm of sera sample binding to peptide divided by the specific OD450 or cpm of NHS sample binding to peptide, which value is less than 2)	- (specific OD450 or cpm of sera sample binding to peptide divided by the specific OD450 or cpm of NHS sample binding to peptide, which value is less than 2)	- (specific OD450 or cpm of sera sample binding to peptide divided by the specific OD450 or cpm of NHS sample binding to peptide, which value is less than 2)	- (specific OD450 or cpm of sera sample binding to peptide divided by the specific OD450 or cpm of NHS sample binding to peptide, which value is less than 2)	0	0	0	0	Number of Non-Transmitters which bound to peptide ([1]; Non-Transmitters, N = 12): 0; Percent of Non-Transmitters which bound to peptide ([1]; Non-Transmitters, N = 12): 0%; Number of Transmitters which bound to peptide ([1]; Transmitters, N = 4): 0; Percent of Transmitters which bound to peptide ([1]; Transmitters, N = 4): 0%; Binding of maternal HIV+ serum to peptide (sera/NHS ratio) [2, 20]: + (which value is between 2 to 3); Binding of maternal HIV+ serum to peptide (sera/NHS ratio) [2, 21]: - (specific OD450 or cpm of sera sample binding to peptide divided by the specific OD450 or cpm of NHS sample binding to peptide, which value is less than 2); Binding of maternal HIV+ serum to peptide (sera/NHS ratio) [2, 22]: - (specific OD450 or cpm of sera sample binding to peptide divided by the specific OD450 or cpm of NHS sample binding to peptide, which value is less than 2); Binding of maternal HIV+ serum to peptide (sera/NHS ratio) [2, 23]: - (specific OD450 or cpm of sera sample binding to peptide divided by the specific OD450 or cpm of NHS sample binding to peptide, which value is less than 2)
LRIVFAVLSVVNRVRQGYSP [Peptide 55]	- (specific OD450 or cpm of sera sample binding to peptide divided by the specific OD450 or cpm of NHS sample binding to peptide, which value is less than 2)	- (specific OD450 or cpm of sera sample binding to peptide divided by the specific OD450 or cpm of NHS sample binding to peptide, which value is less than 2)	- (specific OD450 or cpm of sera sample binding to peptide divided by the specific OD450 or cpm of NHS sample binding to peptide, which value is less than 2)	- (specific OD450 or cpm of sera sample binding to peptide divided by the specific OD450 or cpm of NHS sample binding to peptide, which value is less than 2)	- (specific OD450 or cpm of sera sample binding to peptide divided by the specific OD450 or cpm of NHS sample binding to peptide, which value is less than 2)	- (specific OD450 or cpm of sera sample binding to peptide divided by the specific OD450 or cpm of NHS sample binding to peptide, which value is less than 2)	- (specific OD450 or cpm of sera sample binding to peptide divided by the specific OD450 or cpm of NHS sample binding to peptide, which value is less than 2)	- (specific OD450 or cpm of sera sample binding to peptide divided by the specific OD450 or cpm of NHS sample binding to peptide, which value is less than 2)	- (specific OD450 or cpm of sera sample binding to peptide divided by the specific OD450 or cpm of NHS sample binding to peptide, which value is less than 2)	- (specific OD450 or cpm of sera sample binding to peptide divided by the specific OD450 or cpm of NHS sample binding to peptide, which value is less than 2)	- (specific OD450 or cpm of sera sample binding to peptide divided by the specific OD450 or cpm of NHS sample binding to peptide, which value is less than 2)	- (specific OD450 or cpm of sera sample binding to peptide divided by the specific OD450 or cpm of NHS sample binding to peptide, which value is less than 2)	- (specific OD450 or cpm of sera sample binding to peptide divided by the specific OD450 or cpm of NHS sample binding to peptide, which value is less than 2)	- (specific OD450 or cpm of sera sample binding to peptide divided by the specific OD450 or cpm of NHS sample binding to peptide, which value is less than 2)	- (specific OD450 or cpm of sera sample binding to peptide divided by the specific OD450 or cpm of NHS sample binding to peptide, which value is less than 2)	- (specific OD450 or cpm of sera sample binding to peptide divided by the specific OD450 or cpm of NHS sample binding to peptide, which value is less than 2)	0	0	0	0	Binding of maternal HIV+ serum to peptide (sera/NHS ratio) [2, 20]: - (specific OD450 or cpm of sera sample binding to peptide divided by the specific OD450 or cpm of NHS sample binding to peptide, which value is less than 2); Binding of maternal HIV+ serum to peptide (sera/NHS ratio) [2, 21]: - (specific OD450 or cpm of sera sample binding to peptide divided by the specific OD450 or cpm of NHS sample binding to peptide, which value is less than 2); Binding of maternal HIV+ serum to peptide (sera/NHS ratio) [2, 22]: - (specific OD450 or cpm of sera sample binding to peptide divided by the specific OD450 or cpm of NHS sample binding to peptide, which value is less than 2); Binding of maternal HIV+ serum to peptide (sera/NHS ratio) [2, 23]: - (specific OD450 or cpm of sera sample binding to peptide divided by the specific OD450 or cpm of NHS sample binding to peptide, which value is less than 2)
MN-13: gp41 peptide, amino acids 619-637, HIV strain MN, SEQ ID NO: 166																	60	3	0	0	
MN-16: gp41 peptide, amino acids 638-650, HIV strain MN, SEQ ID NO: 167																	0	0	0	0	
MN-19: gp41 peptide, amino acids 531-540, HIV strain MN, SEQ ID NO: 169 (MGAASVTLTV)																	20	1	20	1	
YIKIFIMIVGGLVG [MN-17]																	40	2	0	0	Correlation of peptide binding with non-transmission (in words) ([3]; Example 7): selectively correlate with non-transmission
